Experimental data taken from article PMC4365270 (Cancer Chemotherapy and Pharmacology, 2015).
“Also recorded” adds a separate entry of the source. Where two headings read alike, the source gives them in different places.

Assay: Plasma pharmacokinetics of DEBIO1143 in patients (LC-MS/MS)
Assay type: in vivo, human
Settings: for AUC(0-t) / Cmax / Tmax / AUC(0-inf) / half-life: human, plasma
Experimental: Pharmacokinetic samples were taken from all patients on day 1 (predose, 0.5, 1, 2, 3, 4, 6, 8, 12, 18 h postdose) and on day 5 (predose, 0.5, 1, 2, 3, 4, 6, 8 h postdose) of the first cycle. In addition, for exploratory PD analysis of IAP inhibition and activation of apoptosis, optional skin and tumor biopsies were taken from consenting patients on days 1 (predose) and 5 and blood samples on day 1 (predose, 1, 3, 6, 8, 12 h postdose), day 2 (predose), and day 5 (3 h postdose).
C max and t max were determined by direct assessment of the observed concentration versus time curves. The area under the curve until the last quantifiable concentration (AUC0−t) was estimated by a linear up/log down method if ≥3 values were available and extrapolated to infinity (AUCinf), if the extrapolated part was <30 %. The terminal elimination half-life (T 1/2) was calculated as the ratio of loge^2 to the apparent terminal phase rate constant (λ z), determined through unweighted linear regression analysis on ≥3 log-transformed concentrations on the linear portion of the terminal slope, excluding the peak concentration. In general, points maximizing R ^2 up to at least 0.9 were included for linear regression.
For the detection of cIAP-1 in paraffin-embedded human tissue, a validated immunohistochemical (IHC) assay was used. […] Plasma biomarkers were measured through commercial ELISAs. All laboratory analyses were performed by MPI Research, Inc. (PK) and Mosaic Laboratory, LLC (PD).

[1] = oral, 80 mg, day 1, n=3, mean (SD)
[2] = oral, 80 mg, day 5, n=3, mean (SD)
[3] = oral, 120 mg, day 1, n=3, mean (SD)
[4] = oral, 120 mg, day 5, n=3, mean (SD)
[5] = oral, 180 mg, day 1, n=7, mean (SD)
[6] = oral, 180 mg, day 5, n=7, mean (SD)
[7] = oral, 260 mg, day 1, n=3, mean (SD)
[8] = oral, 260 mg, day 5, n=3, mean (SD)
[9] = oral, 400 mg, day 1, n=3, mean (SD)
[10] = oral, 400 mg, day 5, n=3, mean (SD)
[11] = oral, 600 mg, day 1, n=3, mean (SD)
[12] = oral, 600 mg, day 5, n=3, mean (SD)
[13] = oral, 900 mg, day 1, n=6, mean (SD)
[14] = oral, 900 mg, day 5, n=6, mean (SD)

In the case of `CN[C@@H](C)C(=O)N[C@H]1CN(C(=O)CC(C)C)CC[C@H]2CC[C@@H](C(=O)NC(c3ccccc3)c3ccccc3)N2C1=O` [DEBIO1143], the “Dose proportionality of C max and AUC” value (doses 80 to 900 mg) is reported as “increased proportionally; also recorded: proportional to doses ≥80 mg”, the “Drug levels versus levels active in animal models” value (doses of ≥80 mg) is reported as “exceeded levels that have demonstrated activity in animal models” and the AUC(0-t) (oral, 5 mg, day 1, n=1) is reported as 19.6 ng·h/mL. The Cmax (oral, 5 mg, day 1, n=1) was 6.69 ng/mL, the Tmax (oral, 5 mg, day 1, n=1, read-out: T max) was 3 h and the AUC(0-t) (oral, 5 mg, day 5, n=1) was 43.4 ng·h/mL. For the same molecule, the Cmax (oral, 5 mg, day 5, n=1) was 18.5 ng/mL, the Tmax (oral, 5 mg, day 5, n=1, read-out: T max) was 1.6 h and the AUC(0-inf) (oral, 10 mg, day 1, n=1) was 152 ng·h/mL. It also gave an AUC(0-t) (oral, 10 mg, day 1, n=1) of 129 ng·h/mL, a Cmax (oral, 10 mg, day 1, n=1) of 37.4 ng/mL and a half-life (oral, 10 mg, day 1, n=1, read-out: T 1/2 (converted)) of 2.46 h. For the same molecule, the Tmax (oral, 10 mg, day 1, n=1, read-out: T max) was 1 h, the AUC(0-inf) (oral, 10 mg, day 5, n=1) was 117 ng·h/mL and the AUC(0-t) (oral, 10 mg, day 5, n=1) was 103 ng·h/mL. For the same molecule, the Cmax (oral, 10 mg, day 5, n=1) was 26.9 ng/mL, the half-life (oral, 10 mg, day 5, n=1, read-out: T 1/2 (converted)) was 2.53 h and the Tmax (oral, 10 mg, day 5, n=1, read-out: T max) was 3.5 h. It also gave an AUC(0-inf) (oral, 20 mg, day 1, n=1) of 643 ng·h/mL, an AUC(0-t) (oral, 20 mg, day 1, n=1) of 615 ng·h/mL and a Cmax (oral, 20 mg, day 1, n=1) of 126 ng/mL. The half-life (oral, 20 mg, day 1, n=1, read-out: T 1/2 (converted)) was 5.44 h, the Tmax (oral, 20 mg, day 1, n=1, read-out: T max) was 1 h and the AUC(0-inf) (oral, 20 mg, day 5, n=1) was 451 ng·h/mL. It also gave an AUC(0-t) (oral, 20 mg, day 5, n=1) of 375 ng·h/mL, a Cmax (oral, 20 mg, day 5, n=1) of 134 ng/mL and a half-life (oral, 20 mg, day 5, n=1, read-out: T 1/2 (converted)) of 3.37 h. It also gave a Tmax (oral, 20 mg, day 5, n=1, read-out: T max) of 0.5 h, an AUC(0-inf) (oral, 40 mg, day 1, n=1) of 2300 ng·h/mL and an AUC(0-t) (oral, 40 mg, day 1, n=1) of 2140 ng·h/mL. For the same molecule, the Cmax (oral, 40 mg, day 1, n=1) was 627 ng/mL, the half-life (oral, 40 mg, day 1, n=1, read-out: T 1/2 (converted)) was 6.38 h and the Tmax (oral, 40 mg, day 1, n=1, read-out: T max) was 1 h. For the same molecule, the AUC(0-t) (oral, 40 mg, day 5, n=1) was 1090 ng·h/mL, the Cmax (oral, 40 mg, day 5, n=1) was 184 ng/mL and the Tmax (oral, 40 mg, day 5, n=1, read-out: T max) was 6.1 h. For the same molecule, the AUC(0-inf) [1] was 6660 ng·h/mL, the AUC(0-t) [1] was 6390 ng·h/mL and the Cmax [1] was 1330 ng/mL. It also gave a half-life (oral, 80 mg, day 1, n=3, mean (SD), read-out: T 1/2 (converted)) of 5.22 h, a Tmax (oral, 80 mg, day 1, n=3, median (min–max), read-out: T max) of 2 h and an AUC(0-inf) [2] of 5920 ng·h/mL. It also gave an AUC(0-t) [2] of 5020 ng·h/mL, a Cmax [2] of 1670 ng/mL and a half-life (oral, 80 mg, day 5, n=3, mean (SD), read-out: T 1/2 (converted)) of 2.69 h. It also gave a Tmax (oral, 80 mg, day 5, n=3, median (min–max), read-out: T max) of 2 h, an AUC(0-inf) [3] of 7460 ng·h/mL and an AUC(0-t) [3] of 6890 ng·h/mL. It also gave a Cmax [3] of 1650 ng/mL, a half-life (oral, 120 mg, day 1, n=3, mean (SD), read-out: T 1/2 (converted)) of 6.39 h and a Tmax (oral, 120 mg, day 1, n=3, median (min–max), read-out: T max) of 1 h. It also gave an AUC(0-inf) [4] of 6770 ng·h/mL, an AUC(0-t) [4] of 5430 ng·h/mL and a Cmax [4] of 1190 ng/mL. The half-life (oral, 120 mg, day 5, n=3, mean (SD), read-out: T 1/2 (converted)) was 2.61 h, the Tmax (oral, 120 mg, day 5, n=3, median (min–max), read-out: T max) was 2 h and the AUC(0-inf) [5] was 11400 ng·h/mL. It also gave an AUC(0-t) [5] of 10600 ng·h/mL, a Cmax [5] of 2130 ng/mL and a half-life (oral, 180 mg, day 1, n=7, mean (SD), read-out: T 1/2 (converted)) of 6.06 h. The Tmax (oral, 180 mg, day 1, n=7, median (min–max), read-out: T max) was 2 h, the AUC(0-inf) [6] was 9980 ng·h/mL and the AUC(0-t) [6] was 7210 ng·h/mL. It also gave a Cmax [6] of 2160 ng/mL, a half-life (oral, 180 mg, day 5, n=7, mean (SD), read-out: T 1/2 (converted)) of 4.14 h and a Tmax (oral, 180 mg, day 5, n=7, median (min–max), read-out: T max) of 2 h. It also gave an AUC(0-inf) [7] of 17900 ng·h/mL, an AUC(0-t) [7] of 16300 ng·h/mL and a Cmax [7] of 2890 ng/mL. It also gave a half-life (oral, 260 mg, day 1, n=3, mean (SD), read-out: T 1/2 (converted)) of 6.59 h, a Tmax (oral, 260 mg, day 1, n=3, median (min–max), read-out: T max) of 3 h and an AUC(0-inf) [8] of 11700 ng·h/mL. It also gave an AUC(0-t) [8] of 10600 ng·h/mL, a Cmax [8] of 2760 ng/mL and a half-life (oral, 260 mg, day 5, n=3, mean (SD), read-out: T 1/2 (converted)) of 3.29 h. The Tmax (oral, 260 mg, day 5, n=3, median (min–max), read-out: T max) was 2 h, the AUC(0-inf) [9] was 27000 ng·h/mL and the AUC(0-t) [9] was 25000 ng·h/mL. The Cmax [9] was 5280 ng/mL, the half-life (oral, 400 mg, day 1, n=3, mean (SD), read-out: T 1/2 (converted)) was 6.27 h and the Tmax (oral, 400 mg, day 1, n=3, median (min–max), read-out: T max) was 1 h. The AUC(0-inf) [10] was 26500 ng·h/mL, the AUC(0-t) [10] was 20100 ng·h/mL and the Cmax [10] was 5540 ng/mL. It also gave a half-life (oral, 400 mg, day 5, n=3, mean (SD), read-out: T 1/2 (converted)) of 3.7 h, a Tmax (oral, 400 mg, day 5, n=3, median (min–max), read-out: T max) of 0.5 h and an AUC(0-inf) [11] of 28700 ng·h/mL. The AUC(0-t) [11] was 27000 ng·h/mL, the Cmax [11] was 5780 ng/mL and the half-life (oral, 600 mg, day 1, n=3, mean (SD), read-out: T 1/2 (converted)) was 5.75 h. It also gave a Tmax (oral, 600 mg, day 1, n=3, median (min–max), read-out: T max) of 1.1 h, an AUC(0-inf) [12] of 25000 ng·h/mL and an AUC(0-t) [12] of 20200 ng·h/mL. The Cmax [12] was 7110 ng/mL, the half-life (oral, 600 mg, day 5, n=3, mean (SD), read-out: T 1/2 (converted)) was 3.54 h and the Tmax (oral, 600 mg, day 5, n=3, median (min–max), read-out: T max) was 1 h. For the same molecule, the AUC(0-inf) [13] was 61500 ng·h/mL, the AUC(0-t) [13] was 56100 ng·h/mL and the Cmax [13] was 10100 ng/mL. For the same molecule, the half-life (oral, 900 mg, day 1, n=6, mean (SD), read-out: T 1/2 (converted)) was 7.11 h, the Tmax (oral, 900 mg, day 1, n=6, median (min–max), read-out: T max) was 1.5 h and the AUC(0-inf) [14] was 47000 ng·h/mL. The AUC(0-t) [14] was 36900 ng·h/mL, the Cmax [14] was 10300 ng/mL and the half-life (oral, 900 mg, day 5, n=6, mean (SD), read-out: T 1/2 (converted)) was 3.15 h. It also gave a Tmax (oral, 900 mg, day 5, n=6, median (min–max), read-out: T max) of 1.5 h, a half-life (oral, all doses, read-out: Average T 1/2 (converted)) of roughly 6 h and a Tmax (oral, all doses, read-out: Average t max) of roughly 1 h. The half-life (oral, day 1, regardless of the dose, read-out: Mean T 1/2, range across doses) was 5.2 to 7.1 h and the Tmax (po, after oral intake, read-out: Time to peak plasma concentrations) was 1 to 3 h.
